The values that follow come from ChEMBL document CHEMBL5465560, “Selectivity Literature for EUbOPEN Chemogenomic Library” (2024).

Data set [1] has as its target hERG (KCNH2) (Homo sapiens, UniProt Q12809). Briefly: Selectivity interaction (Panel of kinases, GPCRs, ion channels and transporters (enzymatic assay)) EUB0000266bCl KCNH2.
For data set [2], the target named is Ephrin type-A receptor 2 (Homo sapiens) (UniProt P29317). Kind of data set: Selectivity interaction (Kinase panel (DSF assay)) EUB0001558a EPHA2. (In general: Differential scanning fluorimetry follows unfolding on heating by fluorescence.)
Data set [3] concerns the target Tyrosine-protein kinase CSK (Homo sapiens) (UniProt P41240). Kind of data set: Selectivity interaction (KinomeScan (DiscoverX)) EUB0001079a CSK. Particulars: at 1 µM.
Data set [4] concerns the target T1, Mitogen-activated protein kinase kinase kinase kinase 2 (Homo sapiens) (UniProt Q12851).
T1 sequence (whole entry): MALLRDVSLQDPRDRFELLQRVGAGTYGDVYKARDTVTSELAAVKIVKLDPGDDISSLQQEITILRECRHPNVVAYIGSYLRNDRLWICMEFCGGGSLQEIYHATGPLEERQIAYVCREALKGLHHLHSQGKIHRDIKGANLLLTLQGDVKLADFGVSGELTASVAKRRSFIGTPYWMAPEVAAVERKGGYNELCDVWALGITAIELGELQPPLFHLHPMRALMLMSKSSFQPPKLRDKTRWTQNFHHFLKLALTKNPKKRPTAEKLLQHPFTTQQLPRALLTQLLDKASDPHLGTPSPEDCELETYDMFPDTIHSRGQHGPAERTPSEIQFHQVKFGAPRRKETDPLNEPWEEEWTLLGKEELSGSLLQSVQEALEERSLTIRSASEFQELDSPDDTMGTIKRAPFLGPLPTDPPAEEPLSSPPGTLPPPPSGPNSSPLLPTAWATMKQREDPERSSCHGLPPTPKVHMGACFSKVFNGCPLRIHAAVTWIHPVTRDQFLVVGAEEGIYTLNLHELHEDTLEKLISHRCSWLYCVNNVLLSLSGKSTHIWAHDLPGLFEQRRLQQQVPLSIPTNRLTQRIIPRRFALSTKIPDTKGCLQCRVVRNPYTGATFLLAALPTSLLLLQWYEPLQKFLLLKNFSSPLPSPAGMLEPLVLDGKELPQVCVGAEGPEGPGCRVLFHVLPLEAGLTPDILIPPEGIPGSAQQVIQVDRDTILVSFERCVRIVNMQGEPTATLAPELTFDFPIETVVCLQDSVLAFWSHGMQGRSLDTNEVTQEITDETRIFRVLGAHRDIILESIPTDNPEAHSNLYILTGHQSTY
Briefly: Selectivity interaction (KinomeScan (DiscoverX)) EUB0001049a MAP4K2. As to conditions: at 1 µM.

The target of data set [5] is Cyclin-dependent kinase 9 (Homo sapiens, UniProt P50750). Kind of data set: Selectivity interaction (KinomeScan (DiscoverX)) EUB0000655a CDK9. As to conditions: at 10 µM.
Data set [6] has as its target Platelet-derived growth factor receptor beta (Homo sapiens, UniProt P09619). Briefly: Selectivity interaction (KinomeScan (DiscoverX)) EUB0000695a PDGFRB. Particulars: at 100 nM.
Data set [7] deals with RAC-beta serine/threonine-protein kinase (Homo sapiens) (UniProt P31751). Briefly: Selectivity interaction (SelectScreen profiling (Invitrogen)) EUB0000607a AKT2. As to conditions: at 2 µM.
Data set [8] deals with T2, Tyrosine-protein kinase Tec (Homo sapiens) (UniProt P42680).
T2 sequence (whole entry): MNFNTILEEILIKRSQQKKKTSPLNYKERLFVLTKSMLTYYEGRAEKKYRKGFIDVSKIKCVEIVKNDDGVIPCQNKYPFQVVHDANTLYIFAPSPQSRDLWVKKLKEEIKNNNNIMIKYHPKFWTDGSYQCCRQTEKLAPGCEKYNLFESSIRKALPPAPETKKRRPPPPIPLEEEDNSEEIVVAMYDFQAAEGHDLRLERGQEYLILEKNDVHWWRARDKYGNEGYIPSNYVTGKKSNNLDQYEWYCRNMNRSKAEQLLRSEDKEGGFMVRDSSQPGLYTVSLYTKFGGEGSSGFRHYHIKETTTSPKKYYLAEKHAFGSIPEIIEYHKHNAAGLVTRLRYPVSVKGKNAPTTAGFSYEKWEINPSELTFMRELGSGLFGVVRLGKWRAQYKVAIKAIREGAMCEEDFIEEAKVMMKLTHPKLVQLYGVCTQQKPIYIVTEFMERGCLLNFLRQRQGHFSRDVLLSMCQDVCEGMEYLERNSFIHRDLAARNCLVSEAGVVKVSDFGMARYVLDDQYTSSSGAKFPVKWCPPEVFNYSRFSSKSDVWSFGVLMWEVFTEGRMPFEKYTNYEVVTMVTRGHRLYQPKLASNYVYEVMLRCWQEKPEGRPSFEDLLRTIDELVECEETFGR
Kind of data set: Selectivity interaction (Kinase panel (Invitrogen)) EUB0000639a TEC. Particulars: at 200 nM.

For data set [9], the target named is Tyrosine-protein kinase JAK1 (Homo sapiens, UniProt P23458). Kind of data set: Selectivity interaction (Kinase panel (KiNativ target engagement assay in Jurkat cells)) EUB0001635a JAK1. Type of data set: cell-based. As to conditions: Selectivity number of off-targets 0.0, Selectivity number of targets 233.0, Source Knowledge https://www.sciencedirect.com/science/article/pii/S2451945619300674?via%3Dihub, at 1 µM.

Data set [10] deals with T3, Serine/threonine-protein kinase DCLK3 (Homo sapiens) (UniProt Q9C098).
T3 sequence (whole entry): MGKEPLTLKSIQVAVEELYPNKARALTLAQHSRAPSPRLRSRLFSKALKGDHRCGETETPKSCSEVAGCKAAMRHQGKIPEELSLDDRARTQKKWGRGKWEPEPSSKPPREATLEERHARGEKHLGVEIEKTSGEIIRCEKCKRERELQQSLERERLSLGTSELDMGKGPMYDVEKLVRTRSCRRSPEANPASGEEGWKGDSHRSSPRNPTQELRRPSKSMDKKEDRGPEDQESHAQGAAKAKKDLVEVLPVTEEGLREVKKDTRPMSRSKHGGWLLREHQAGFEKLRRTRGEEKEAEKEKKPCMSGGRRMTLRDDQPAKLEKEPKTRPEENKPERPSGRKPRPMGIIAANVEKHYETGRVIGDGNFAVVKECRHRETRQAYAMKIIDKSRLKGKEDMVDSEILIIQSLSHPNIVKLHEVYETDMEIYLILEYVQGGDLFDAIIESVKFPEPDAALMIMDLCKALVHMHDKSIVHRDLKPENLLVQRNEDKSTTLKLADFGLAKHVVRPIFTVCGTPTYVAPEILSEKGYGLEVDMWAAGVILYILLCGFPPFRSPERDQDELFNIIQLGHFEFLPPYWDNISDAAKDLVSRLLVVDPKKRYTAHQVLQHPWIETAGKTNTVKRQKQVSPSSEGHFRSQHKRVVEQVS
Kind of data set: Selectivity interaction (KinomeScan (DiscoverX)) EUB0000618a DCLK3. Particulars: at 10 µM.

Chain of RAC-beta serine/threonine-protein kinase (Homo sapiens) (P31751 whole entry): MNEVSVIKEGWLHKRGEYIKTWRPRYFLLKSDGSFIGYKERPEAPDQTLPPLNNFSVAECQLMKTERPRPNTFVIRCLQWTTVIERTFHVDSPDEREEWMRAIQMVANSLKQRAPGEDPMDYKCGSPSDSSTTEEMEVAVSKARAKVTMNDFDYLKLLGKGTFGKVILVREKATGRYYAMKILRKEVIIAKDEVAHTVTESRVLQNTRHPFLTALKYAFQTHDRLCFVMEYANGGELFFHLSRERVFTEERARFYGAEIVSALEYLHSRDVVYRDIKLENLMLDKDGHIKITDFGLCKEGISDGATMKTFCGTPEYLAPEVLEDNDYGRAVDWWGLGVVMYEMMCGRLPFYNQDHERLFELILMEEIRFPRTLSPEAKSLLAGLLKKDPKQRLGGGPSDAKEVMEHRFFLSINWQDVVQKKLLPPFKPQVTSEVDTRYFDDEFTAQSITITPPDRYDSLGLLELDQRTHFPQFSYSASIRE
Chain of Platelet-derived growth factor receptor beta (P09619 whole entry): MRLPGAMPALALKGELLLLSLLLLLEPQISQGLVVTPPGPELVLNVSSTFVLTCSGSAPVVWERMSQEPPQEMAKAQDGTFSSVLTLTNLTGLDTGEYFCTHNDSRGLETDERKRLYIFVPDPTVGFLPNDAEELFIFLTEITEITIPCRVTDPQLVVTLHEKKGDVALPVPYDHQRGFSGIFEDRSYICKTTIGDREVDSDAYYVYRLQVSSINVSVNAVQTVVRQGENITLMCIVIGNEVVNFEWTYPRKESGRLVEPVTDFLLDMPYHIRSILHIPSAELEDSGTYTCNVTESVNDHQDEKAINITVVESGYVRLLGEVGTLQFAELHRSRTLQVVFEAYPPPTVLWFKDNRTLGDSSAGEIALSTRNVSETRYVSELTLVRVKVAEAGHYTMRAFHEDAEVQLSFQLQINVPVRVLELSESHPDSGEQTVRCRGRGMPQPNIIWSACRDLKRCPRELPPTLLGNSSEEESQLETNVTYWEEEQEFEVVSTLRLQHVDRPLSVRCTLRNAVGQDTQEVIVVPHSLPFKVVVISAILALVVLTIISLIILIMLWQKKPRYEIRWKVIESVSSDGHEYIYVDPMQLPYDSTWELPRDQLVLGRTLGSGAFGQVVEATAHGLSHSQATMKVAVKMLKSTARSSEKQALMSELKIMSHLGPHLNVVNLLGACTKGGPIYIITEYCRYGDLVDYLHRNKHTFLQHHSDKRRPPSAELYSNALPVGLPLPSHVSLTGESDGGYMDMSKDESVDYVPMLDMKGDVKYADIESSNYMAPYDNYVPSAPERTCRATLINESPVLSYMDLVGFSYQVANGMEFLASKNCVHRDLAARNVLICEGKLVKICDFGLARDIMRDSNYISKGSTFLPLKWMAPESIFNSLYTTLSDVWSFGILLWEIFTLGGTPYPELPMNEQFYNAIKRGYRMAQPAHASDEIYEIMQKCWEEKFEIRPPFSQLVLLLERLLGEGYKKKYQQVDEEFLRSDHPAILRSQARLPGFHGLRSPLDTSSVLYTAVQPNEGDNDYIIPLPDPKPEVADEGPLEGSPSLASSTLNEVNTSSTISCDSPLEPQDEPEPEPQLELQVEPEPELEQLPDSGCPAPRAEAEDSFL
Chain of Tyrosine-protein kinase CSK (Homo sapiens) (P41240 2-450 limits assumed): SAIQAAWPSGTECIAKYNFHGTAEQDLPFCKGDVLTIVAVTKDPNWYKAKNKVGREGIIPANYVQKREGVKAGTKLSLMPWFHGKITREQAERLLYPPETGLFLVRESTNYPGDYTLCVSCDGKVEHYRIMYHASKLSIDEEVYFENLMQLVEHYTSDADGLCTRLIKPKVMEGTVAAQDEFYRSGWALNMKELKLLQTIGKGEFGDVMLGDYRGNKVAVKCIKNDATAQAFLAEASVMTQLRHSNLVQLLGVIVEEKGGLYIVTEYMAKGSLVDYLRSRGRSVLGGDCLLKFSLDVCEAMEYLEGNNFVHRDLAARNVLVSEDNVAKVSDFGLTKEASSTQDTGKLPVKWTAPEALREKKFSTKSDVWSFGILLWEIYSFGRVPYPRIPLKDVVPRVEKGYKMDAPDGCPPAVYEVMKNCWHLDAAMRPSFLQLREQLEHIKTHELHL
Chain of hERG (KCNH2) (Q12809 whole entry): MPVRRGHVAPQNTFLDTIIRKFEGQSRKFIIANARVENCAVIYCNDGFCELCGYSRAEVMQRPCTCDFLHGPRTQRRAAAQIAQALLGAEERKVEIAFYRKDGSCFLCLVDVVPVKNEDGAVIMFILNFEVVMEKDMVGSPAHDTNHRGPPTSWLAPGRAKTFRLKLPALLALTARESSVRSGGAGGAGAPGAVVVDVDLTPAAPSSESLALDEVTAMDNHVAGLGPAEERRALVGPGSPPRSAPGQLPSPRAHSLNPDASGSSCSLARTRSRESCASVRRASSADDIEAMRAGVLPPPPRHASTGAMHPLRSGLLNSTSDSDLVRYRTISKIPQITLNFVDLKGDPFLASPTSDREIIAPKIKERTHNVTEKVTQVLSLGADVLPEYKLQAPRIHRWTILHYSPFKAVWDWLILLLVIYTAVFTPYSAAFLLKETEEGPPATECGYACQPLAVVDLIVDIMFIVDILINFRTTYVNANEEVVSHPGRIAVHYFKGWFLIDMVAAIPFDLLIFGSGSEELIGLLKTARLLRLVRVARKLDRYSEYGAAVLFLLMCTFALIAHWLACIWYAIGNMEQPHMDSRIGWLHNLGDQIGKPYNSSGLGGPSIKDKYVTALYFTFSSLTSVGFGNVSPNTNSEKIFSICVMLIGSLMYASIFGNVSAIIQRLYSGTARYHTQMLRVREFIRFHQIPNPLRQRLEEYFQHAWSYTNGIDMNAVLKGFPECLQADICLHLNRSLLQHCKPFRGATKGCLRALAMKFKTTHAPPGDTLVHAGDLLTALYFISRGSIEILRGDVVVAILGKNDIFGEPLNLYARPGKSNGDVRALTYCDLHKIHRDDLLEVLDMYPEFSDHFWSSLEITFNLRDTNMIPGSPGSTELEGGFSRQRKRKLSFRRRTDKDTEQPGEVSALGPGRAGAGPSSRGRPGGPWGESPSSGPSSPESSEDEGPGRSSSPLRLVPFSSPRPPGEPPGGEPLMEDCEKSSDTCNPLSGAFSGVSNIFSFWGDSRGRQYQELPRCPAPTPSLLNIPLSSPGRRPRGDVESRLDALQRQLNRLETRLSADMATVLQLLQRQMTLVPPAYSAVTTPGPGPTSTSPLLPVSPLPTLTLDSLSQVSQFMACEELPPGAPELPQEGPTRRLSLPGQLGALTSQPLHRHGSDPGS
Chain of Cyclin-dependent kinase 9 (P50750 whole entry): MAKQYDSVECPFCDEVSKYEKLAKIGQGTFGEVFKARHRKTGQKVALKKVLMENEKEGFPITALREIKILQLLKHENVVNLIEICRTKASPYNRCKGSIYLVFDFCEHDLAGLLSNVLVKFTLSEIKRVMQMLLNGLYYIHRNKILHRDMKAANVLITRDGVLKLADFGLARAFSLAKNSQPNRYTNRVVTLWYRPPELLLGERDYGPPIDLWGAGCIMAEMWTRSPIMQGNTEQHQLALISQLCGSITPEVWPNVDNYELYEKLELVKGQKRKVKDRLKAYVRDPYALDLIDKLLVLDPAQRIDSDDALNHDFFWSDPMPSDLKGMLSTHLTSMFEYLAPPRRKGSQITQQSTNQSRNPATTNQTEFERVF
Chain of Tyrosine-protein kinase JAK1 (P23458 whole entry): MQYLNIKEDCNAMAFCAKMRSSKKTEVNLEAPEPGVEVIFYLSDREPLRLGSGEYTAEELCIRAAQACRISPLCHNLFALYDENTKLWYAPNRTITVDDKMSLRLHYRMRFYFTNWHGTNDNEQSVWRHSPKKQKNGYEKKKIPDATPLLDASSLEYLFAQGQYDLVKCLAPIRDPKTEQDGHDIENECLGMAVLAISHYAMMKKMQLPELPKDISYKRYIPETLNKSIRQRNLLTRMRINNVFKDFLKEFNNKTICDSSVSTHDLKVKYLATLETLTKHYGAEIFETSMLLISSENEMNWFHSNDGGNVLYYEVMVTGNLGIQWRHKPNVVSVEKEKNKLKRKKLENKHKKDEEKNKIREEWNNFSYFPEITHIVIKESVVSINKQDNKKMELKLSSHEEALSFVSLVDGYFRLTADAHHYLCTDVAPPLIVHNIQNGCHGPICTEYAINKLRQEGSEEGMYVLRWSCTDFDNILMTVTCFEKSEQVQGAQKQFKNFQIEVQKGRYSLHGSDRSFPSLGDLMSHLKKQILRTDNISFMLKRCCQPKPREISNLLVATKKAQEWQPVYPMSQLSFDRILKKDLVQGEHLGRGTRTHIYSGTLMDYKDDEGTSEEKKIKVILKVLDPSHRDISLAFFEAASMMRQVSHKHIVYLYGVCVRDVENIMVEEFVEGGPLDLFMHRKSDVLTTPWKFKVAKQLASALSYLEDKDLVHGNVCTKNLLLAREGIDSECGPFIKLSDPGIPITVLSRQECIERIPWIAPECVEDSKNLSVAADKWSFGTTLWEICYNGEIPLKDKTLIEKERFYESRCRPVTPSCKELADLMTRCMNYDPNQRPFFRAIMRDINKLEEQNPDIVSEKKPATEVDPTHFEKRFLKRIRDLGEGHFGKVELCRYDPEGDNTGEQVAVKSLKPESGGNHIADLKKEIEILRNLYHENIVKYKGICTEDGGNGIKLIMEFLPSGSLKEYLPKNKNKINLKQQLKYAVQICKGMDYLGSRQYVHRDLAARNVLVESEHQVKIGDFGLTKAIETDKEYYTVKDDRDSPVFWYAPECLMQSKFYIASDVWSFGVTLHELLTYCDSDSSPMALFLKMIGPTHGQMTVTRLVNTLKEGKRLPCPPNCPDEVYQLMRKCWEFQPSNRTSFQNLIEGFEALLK

In turn, `CCn1c(-c2nc3cc(C(=O)N4CCCC(N)C4)ccc3n2C)cc2ccccc21` (stereo not given) gave an XC50 in [1] of 6.31 µM.
Compound `CC(C)(O)[C@H](F)CN1Cc2cc(NC(=O)c3cnn4cccnc34)c(N3CCOCC3)cc2C1=O` showed a dTM in data set [2] of 3.4 K.
On to `Nc1cnc(N2CCc3cc(S(=O)(=O)Nc4c(F)cc(Cl)cc4F)cc(N4CCCC4=O)c32)nc1` [TP-020n], for which the % of control in data set [3] stood at 99%.
The compound `COc1cc(Nc2nc(C)cc(-c3cnn4nc(OC)ccc34)n2)cc(C(F)(F)F)c1` had a % of control in [4] of 99%.
Consider `CN(C)CCOc1ccc(-c2nc(-c3ccncc3)c(-c3ccc4c(c3)CC/C4=N\O)[nH]2)cc1`, for which the % of control in data set [5] was 100%.
In data set [6], `Cc1cc(F)c(C(=O)Nc2cccc(-c3nncn3C(C)C)n2)cc1-n1cnc(C2CC2)c1` came in with a % of control of 90%.
As for `CNC(=O)Nc1ccc(-c2nc(N3CC4CCC(C3)O4)c3cnn(C4CCC5(CC4)OCCO5)c3n2)cc1`, the % of inhibition in data set [7] came to 5%.
As for `CC[C@@H]1[C@H](F)C(=O)N[C@@H]1COc1nccc2cc(C(N)=O)c(OC)cc12` [ZIMLOVISERTIB], in [8], the % of inhibition is -4.01%.
For `C=CC(=O)Nc1ccc(C(=O)Nc2[nH]nc3c2CN(C(=O)N[C@H](CN(C)C)c2ccccc2)C3(C)C)cc1`, in data set [9], the % of engagement is 3.6%.
`O[C@H]1CC[C@H](Nc2ncc3nc(Nc4c(F)cc(F)cc4F)n([C@H]4CCOC4)c3n2)CC1` yielded a % of control in data set [10] of 98%.
